# From patent US7335756B2, “Retinoic acid metabolizing cytochrome P450” (Cytochroma Inc., priority 2001, dated 2008)
# Legend:
# P450RAI-3 [1] = molecular target: T1, P450RAI-3 (Homo sapiens, UniProt Q6V0L0, F447L); assay: [3H]-RA-metabolism inhibition (substrate competition) in P450RAI-3 stable transfected Hela cells; type: cell-based; design: expressed in transfected cells; conditions: 2 nM [3H]-RA, read-out: ID50, competition for P450RAI-3 [3H]-RA metabolism
# T1 sequence (Q6V0L0 1-522 F447L): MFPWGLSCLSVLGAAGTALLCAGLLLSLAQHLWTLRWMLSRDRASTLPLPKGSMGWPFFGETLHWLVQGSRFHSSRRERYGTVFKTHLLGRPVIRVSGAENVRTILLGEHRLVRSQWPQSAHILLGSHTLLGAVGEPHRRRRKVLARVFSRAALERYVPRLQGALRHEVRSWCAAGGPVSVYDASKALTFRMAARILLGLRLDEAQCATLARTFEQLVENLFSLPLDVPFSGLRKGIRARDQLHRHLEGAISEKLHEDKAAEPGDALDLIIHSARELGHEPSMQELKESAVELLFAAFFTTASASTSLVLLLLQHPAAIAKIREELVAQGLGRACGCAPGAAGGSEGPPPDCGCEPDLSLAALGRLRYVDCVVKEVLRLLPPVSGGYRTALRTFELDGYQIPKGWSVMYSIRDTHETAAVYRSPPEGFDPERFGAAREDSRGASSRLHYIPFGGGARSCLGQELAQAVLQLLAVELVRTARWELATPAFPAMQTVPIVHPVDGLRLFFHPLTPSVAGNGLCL
# Method: (§1) The purpose of these experiments is to determine the specific substrates for P450RAI-3. […] The RA metabolism reaction was started by the addition of 50 ul of [^3H]-RA solution (20000 cpm, 2 nM final concentration). Cells were incubated for 3 hours in a humidified CO2 incubator at 37 degrees Celsius. The reaction was stopped by the addition of 5 ul of 10% acetic acid. Organic and aqueous soluble radio-labelled metabolites were extracted using the Bligh-Dyer procedure.
# P450RAI-3 [2] = molecular target: T1, P450RAI-3; assay: [3H]-RA-metabolism inhibition in mammalian microsomes from transient P450RAI-3-transfected Cos cells; type: biochemical; design: expressed in transfected cells; host or cells: COS-1 (transient, pcDNA-P450RAI-3, Fugene); conditions: read-out: ID50 (nM) P450RAI-3
# Method: RA-metabolism activity was assessed using RA-metabolism microsomes-based assay and Bligh Dyer extraction as follows: Using an automatic repeating-pipette, gently thawed and homogenized microsomes were plated in a 48-well plate in final volume of 150 μl of storage buffer containing 0.5 mg/ml BSA. At indicated concentration 2 μl of compound solution was added to the assay and 2 μl of DMSO was added to MS control (quadruplet) and No-MS control. 50 μl of [^3H]-RA solution (30,000 cpm, 2 nM final concentration) was added. The microsomes assay with the compounds and the [^3H]-ATRA were incubated first for 10 min at 37° C., and then the reaction started by adding 20 μl of NADPH solution (or 1 mM final). After 1-hour incubation the reaction was stopped by adding 5 μl of 10% acetic acid. Organic and aqueous soluble radio-labelled metabolites were extracted using the Bligh-Dyer procedure. Saturated activity obtained in presence of NADPH at 5 μg of microsomes, FIG. 14.
# Microsomes prepared from either stable Hela-CYP26-B or transient P450RAI-3-transfected Cos cells were used.
# P450RAI-3 [3] = molecular target: T1, P450RAI-3; assay: [3H]-RA-metabolism inhibition, transient Cos-P450RAI-3 cell-based assay; design: expressed in transfected cells; host or cells: COS-1 (transient, pcDNA-P450RAI-3, Fugene); conditions: at lower concentrations
# Method: as §1
# P450RAI-3 [4] = molecular target: T1, P450RAI-3; assay: ATRA and 9-cis-RA binding assay, Sf9-Bac-P450RAI-3 insect microsomes; conditions: Kd, substrate binding to P450RAI-3, insect microsomes; Table 4 prints no unit, nM
# CYP26-B = molecular target: T2, CYP26-B (Homo sapiens, UniProt Q9NR63); assay: [3H]-RA-metabolism inhibition, transient Cos-CYP26-B cell-based assay; conditions: at lower concentrations
# T2 sequence (Q9NR63 1-512): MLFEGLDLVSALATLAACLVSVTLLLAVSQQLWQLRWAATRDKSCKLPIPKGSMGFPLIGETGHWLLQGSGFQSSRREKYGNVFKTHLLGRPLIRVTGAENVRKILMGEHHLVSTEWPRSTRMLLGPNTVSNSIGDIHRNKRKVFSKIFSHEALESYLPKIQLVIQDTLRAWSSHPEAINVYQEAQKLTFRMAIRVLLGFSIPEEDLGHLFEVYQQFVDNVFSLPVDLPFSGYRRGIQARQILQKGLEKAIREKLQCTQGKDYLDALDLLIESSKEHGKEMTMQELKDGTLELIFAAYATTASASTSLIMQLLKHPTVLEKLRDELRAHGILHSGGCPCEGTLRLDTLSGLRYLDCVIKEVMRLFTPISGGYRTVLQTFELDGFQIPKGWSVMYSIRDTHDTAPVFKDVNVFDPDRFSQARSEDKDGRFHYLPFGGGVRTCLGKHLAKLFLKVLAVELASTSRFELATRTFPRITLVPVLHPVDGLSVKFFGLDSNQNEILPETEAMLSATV
# P450RAI-3 [5] = molecular target: T1, P450RAI-3; assay: LC/MS analysis of ATRA and 9-cis-RA metabolism in Hela-P450RAI-3 stable cells; conditions: 5 hours
# Method: After 5 hours incubation at 37° C., cells were acidified with acetic acid and total retinoids were extracted using Ethyl acetate method. The organic upper layer was pooled and evaporated in speed-vacuum, and dried residues were dissolved in HPLC mobile solvent and analyzed in LC/MS.
# The HPLC system consisted of a waters alliance 2690 separations module. Chromatography was obtained on an Eclipse X DB-C18 reverse phase column (5 um, 2.1×150 mm from HP). A gradient elution program was used using acetonitrile, water and 10% acetic acid. The flow was held at 0.2 ml/min.
# Mass Spectrometry condition used for this work consisted of a Micro-mass Quatro Ultima Tandem triple quadruple mass spectrometer equipped with electrospray interface (ESI) and operated in a negative mode.
# P450RAI-3 [6] = molecular target: T1, P450RAI-3; assay: RA-metabolism cell based assay in P450RAI-3-infected Sf9 cells; design: expressed in transfected cells; conditions: 2 nM [3H]-RA
# Method: Recombinant baculovirus expressing either P450RAI-3 or CYP26B (Bac-P450RAI-3 or Bac-CYP26B or CYP26B) was prepared and titrated by end-point dilution and infection of Sf9 cells in 96-well format. Baculovirus expressing vector was co-transfected into Sf9-insect cells. Infected cells were assessed for RA-metabolism after 72 hours post transfection using RA-metabolism cell based assay as follows: the RA-metabolism reaction was started by adding 50 μl of [^3H]-RA solution (20000 cpm, 2 nM final concentration) using an automatic repeating-pipette.
# Cells were incubated for 3 hours. The reaction was stopped by adding 5 μl of 10% acetic acid. Organic and aqueous soluble radio-labelled metabolites were extracted using the Bligh-Dyer procedure.
smiles,measurement,setting,value
"CC1=C(/C=C/C(C)=C/C=C/C(C)=C/C(=O)O)C(C)(C)CCC1 [ATRA, all-trans-retinoic-acid]",IC50,P450RAI-3 [1],0.3 µM
same,IC50,P450RAI-3 [2],20 nM
same,competition / inhibition of P450RAI-3,P450RAI-3 [3],competed
same,Kd,P450RAI-3 [4],45 nM
same,competition / inhibition of CYP26-B,CYP26-B,competed
same,metabolites formed by P450RAI-3,P450RAI-3 [5],hydroxy and oxo-metabolites
same,metabolism by P450RAI-3-infected Sf9-cells,P450RAI-3 [6],metabolized ATRA and converted it to water-soluble metabolites
